Results from patent publication US20230250096A1, “SUBSTITUTED PHENYL-1H-PYRROLO[2,3-c] PYRIDINE DERIVATIVES” (Janssen Pharmaceutica NV, priority 2021, published 2023).

Columns and labels:
[1] = target: T1, menin/MLL (terbium chelate-labeled menin, FITC-MBM1 peptide) (Homo sapiens, UniProt O00255, T541A); assay: Menin/MLL homogenous time-resolved fluorescence (HTRF) assay; assay type: binding; conditions: 30 min incubation
T1 construct: Menin (a.a 1-610-6xhis tag, 2.3 mg/mL in 20 mM Hepes)
T1 sequence (O00255 with tags, fused parts or gaps T541A): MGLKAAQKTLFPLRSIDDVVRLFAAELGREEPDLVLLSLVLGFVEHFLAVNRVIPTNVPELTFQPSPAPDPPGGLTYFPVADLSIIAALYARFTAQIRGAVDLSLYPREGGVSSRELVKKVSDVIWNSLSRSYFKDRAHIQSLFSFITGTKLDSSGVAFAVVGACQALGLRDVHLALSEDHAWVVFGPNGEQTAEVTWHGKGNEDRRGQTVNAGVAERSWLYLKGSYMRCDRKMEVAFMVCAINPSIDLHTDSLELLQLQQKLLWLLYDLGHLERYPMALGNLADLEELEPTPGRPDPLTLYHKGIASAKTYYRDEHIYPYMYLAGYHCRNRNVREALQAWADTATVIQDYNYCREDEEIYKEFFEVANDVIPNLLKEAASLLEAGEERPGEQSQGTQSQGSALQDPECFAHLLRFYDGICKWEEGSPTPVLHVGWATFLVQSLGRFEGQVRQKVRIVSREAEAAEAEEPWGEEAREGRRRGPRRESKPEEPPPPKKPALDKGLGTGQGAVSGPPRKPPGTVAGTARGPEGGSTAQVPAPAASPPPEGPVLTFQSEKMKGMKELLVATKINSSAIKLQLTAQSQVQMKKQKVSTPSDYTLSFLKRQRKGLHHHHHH
Description: 1) Menin/MLL Homogenous Time-Resolved Fluorescence (HTRF) Assay
To an untreated, white 384-well microtiter plate was added 40 nL 200× test compound in DMSO and 4 μL 2× terbium chelate-labeled menin (vide infra for preparation) in assay buffer (40 mM Tris HCl, pH 7.5, 50 mM NaCl. 1 mM DTT (dithiothreitol) and 0.05% Pluronic F-127). After incubation of test compound and terbium chelate-labeled menin for 30 min at ambient temperature, 4 μL 2×FITC-MBM1 peptide (FITC-β-alanine-[…]-NH2) (“FITC” means fluorescein isothiocyanate) in assay buffer was added, the microtiter plate centrifuged at 1000 rpm for 1 min and the assay mixtures incubated for 15 min at ambient temperature. The relative amount of menin FITC-MBM1 complex present in an assay mixture is determined by measuring the homogenous time-resolved fluorescence (HTRF) of the terbium/FITC donor/acceptor fluorphore pair using an EnVision microplate reader (ex. 337 nm/terbium em. 490 nm/FITC em. 520 nm) at ambient temperature. The degree of fluorescence resonance energy transfer (the HTRF value) is expressed as the ratio of the fluorescence emission intensities of the FITC and terbium fluorophores (F^em520 nm/F^em490 nm). The final concentrations of reagents in the binding assay are […] terbium chelate-labeled menin, 75 nM FITC-MBM1 peptide and 0.5% DMSO in assay buffer. Dose-response titrations of test compounds are conducted using an 11 point, four-fold serial dilution scheme, starting typically at 10 μM.
Compound potencies were determined by first calculating % inhibition at each compound concentration according to equation 1:
% inhibition=((HC−LC)−(HTRF^compound−LC))/(HC−LC))*100 (Eqn 1)
Where LC and HC are the HTRF values of the assay in the presence or absence of a saturating concentration of a compound that competes with FITC-MBM1 for binding to menin, and HTRF^compound is the measured HTRF value in the presence of the test compound. HC and LC HTRF values represent an average of at least 10 replicates per plate.
% inhibition=Bottom+(Top−Bottom)/(1+10^((log/C50−log[cmpd])*h)) (Eqn 2)
Where Bottom and Top are the lower and upper asymptotes of the dose-response curve, respectively, IC50 is the concentration of compound that yields 50% inhibition of signal and h is the Hill coefficient.
Preparation of Terbium cryptate labeling of Menin: Menin (a.a 1-610-6xhis tag, 2.3 mg/mL in 20 mM Hepes (2-[4-(2-Hydroxyethyl)-1-piperazinyl]ethane sulfonic acid), 80 mM NaCl, 5 mM DTT (Dithiothreitol), pH 7.5) was labeled with terbium cryptate as follows. 200 μg of Menin was buffer exchanged into 1×Hepes buffer. 6.67 μM Menin was incubated with 8-fold molar excess NHS (N-hydroxysuccinimide)-terbium cryptate for 40 minutes at room temperature. Half of the labeled protein was purified away from free label by running the reaction over a NAP5 column with elution buffer (0.1M Hepes, pH 7+0.1% BSA (bovine serum albumin)). The other half was eluted with 0.1 M phosphate buffered saline (PBS), pH7. 400 μl of eluent was collected for each, aliquoted and frozen at −80° C. The final concentration of terbium-labeled Menin protein was 115 μg/mL in Hepes buffer and 85 μg/mL in PBS buffer, respectively.

MEIS1 mRNA expression = MEIS1 mRNA expression assay (Quantigene Singleplex) in MOLM14 cells; assay type: cell-based, human; conditions: Homo sapiens, MOLM-14, 48 h, 48 hours incubation
Description: 2b) MEIS1 mRNA Expression Assay
MEIS1 mRNA expression upon treatment of compound was examined by Quantigene Singleplex assay (Thermo Fisher Scientific). This technology allows for direct quantification of mRNA targets using probes hybridizing to defined target sequences of interest and the signal is detected using a Multimode plate reader Envision (PerkinElmer). The MOLM14 cell line was used for this experiment. Cells were plated in 96-well plates at 3,750 cells/well in the presence of increasing concentrations of compounds. After incubation of 48 hours with compounds, cells were lysed in lysis buffer and incubated for 45 minutes at 55° C. Cell lysates were mixed with human MEIS specific capture probe or human RPL28 (Ribosomal Protein L28) specific probe as a normalization control, as well as blocking probes. Cell lysates were then transferred to the custom assay hybridization plate (Thermo Fisher Scientific) and incubated for 18 to 22 hours at 55° C. Subsequently, plates were washed to remove unbound materials followed by sequential addition of preamplifiers, amplifiers, and label probe. Signals (═gene counts) were measured with a Multimode plate reader Envision. IC50S were calculated by dose-response modelling using appropriate software. For all non-housekeeper genes response equal counts corrected for background and relative expression. For each sample, each test gene signal (background subtracted) was divided by the normalization gene signal (RPL28: background subtracted). Fold changes were calculated by dividing the normalized values for the treated samples by the normalized values for the DMSO treated sample. Fold changes of each target gene were used for the calculation of IC50S.

Structure (SMILES) | IC50 [1] [nM] | IC50 (MEIS1 mRNA expression) [nM]
Cc1cncc2c1c(C[C@@H]1CCN(C(CCCN3CCC(S(C)(=O)=O)CC3)C(C)C)C1)cn2-c1ccc(F)cc1C(=O)N(C)C(C)C (mixture of isomers) [Compound 10] | 0.021 | 17
Cc1cncc2c1c(C[C@H]1CCN(C(CCCN3CCC(S(C)(=O)=O)CC3)C(C)C)C1)cn2-c1ccc(F)cc1C(=O)N(C)C(C)C (mixture of isomers) [Compound 11] | 0.034 | 6
CC(=O)N1C[C@@H]2CN(CCCC(C(C)C)N3CC[C@@H](Cc4cn(-c5ccc(F)cc5C(=O)N(C)C(C)C)c5cncc(C)c45)C3)C[C@H]2C1 (mixture of isomers) [Compound 12] | 0.018 | 5
CC(=O)N1C[C@@H]2CN(CCCC(C(C)C)N3CC[C@H](Cc4cn(-c5ccc(F)cc5C(=O)N(C)C(C)C)c5cncc(C)c45)C3)C[C@H]2C1 (mixture of isomers) [Compound 13] | 0.124 | 6
COCCNCCCC(C(C)C)N1CC[C@@H](Cc2cn(-c3ccc(F)cc3C(=O)N(C)C(C)C)c3cncc(C)c23)C1 (mixture of isomers) [Compound 14] | 0.054 | < 3.6
COCCNCCCC(C(C)C)N1CC[C@H](Cc2cn(-c3ccc(F)cc3C(=O)N(C)C(C)C)c3cncc(C)c23)C1 (mixture of isomers) [Compound 15] | 0.04 | < 0.8
CCC(CCCN1C[C@H]2CN(C(C)=O)C[C@@H]2C1)N1CC[C@@H](Cc2cn(-c3ccc(F)cc3C(=O)N(C)C(C)C)c3cncc(C)c23)C1 (mixture of isomers) [Compound 16] | 0.051 | 70
CCC(CCCN1C[C@H]2CN(C(C)=O)C[C@@H]2C1)N1CC[C@H](Cc2cn(-c3ccc(F)cc3C(=O)N(C)C(C)C)c3cncc(C)c23)C1 (mixture of isomers) [Compound 17] | 0.031 | 48
CC(=O)N1C[C@@H]2CN([C@H]3C[C@@H](C(C(C)C)N4CC[C@@H](Cc5cn(-c6ccc(F)cc6C(=O)N(C)C(C)C)c6cncc(C)c56)C4)C3)C[C@H]2C1 (mixture of isomers) [Compound 20] | ~0.19 | < 1.7
CCC([C@H]1C[C@@H](N2C[C@H]3CN(C(C)=O)C[C@@H]3C2)C1)N1CC[C@@H](Cc2cn(-c3ccc(F)cc3C(=O)N(C)C(C)C)c3cncc(C)c23)C1 (mixture of isomers) [Compound 22] | 0.024 | ~11
CCC([C@H]1C[C@@H](N2C[C@H]3CN(C(C)=O)C[C@@H]3C2)C1)N1CC[C@H](Cc2cn(-c3ccc(F)cc3C(=O)N(C)C(C)C)c3cncc(C)c23)C1 (mixture of isomers) [Compound 23] | 0.07 | 7
CCC([C@H]1C[C@@H](N2CCN(C(C)=O)CC2)C1)N1CC[C@H](Cc2cn(-c3ccc(F)cc3C(=O)N(C)C(C)C)c3cncc(C)c23)C1 (mixture of isomers) [Compound 25] | 0.087 | 91
CC(=O)N1C[C@@H]2CN([C@H]3C[C@@H](C(C)N4CC[C@@H](Cc5cn(-c6ccc(F)cc6C(=O)N(C)C(C)C)c6cncc(C)c56)C4)C3)C[C@H]2C1 (mixture of isomers) [Compound 28] | 0.055 | 107
CC(=O)N1CCC(CN2CC[C@@H](Cc3cn(-c4ccc(F)cc4S4(=O)=NCCC4)c4cncc(C)c34)C2)CC1 (mixture of isomers) [Compound 214] |  | > 1000
CC(=O)N1CCC(N2CC(Cc3cn(-c4ccc(F)cc4C(=O)N(C)C(C)C)c4cncc(C)c34)C2)C[C@H]1C (single isomer, unassigned) [Compound 292a] | 0.132 | 
Cc1cncc2c1c(CC1CN([C@@H]3CCN4C(=O)CCC4C3)C1)cn2-c1ccc(F)cc1C(=O)N(C)C(C)C (single isomer, unassigned) [Compound 309a] | 1.3 | 
CNC(=O)c1cncc(N2CCC(N3CC(Cc4cn(-c5ccc(OC)cc5C(=O)N(C)C(C)C)c5cncc(C)c45)C3)CC2)n1 [Compound 76] | 0.304 | 
CC(=O)N1CCC(N2CC[C@H](Cc3cn(-c4ccc(F)cc4C(=O)N(C)C(C)C)c4cncc(C)c34)C2)CC1 [Compound 156] | 0.042 | 
CC(=O)N1CC2CC(N3CC(Cc4cn(-c5ccc(F)cc5C(=O)N(C)C(C)C)c5cncc(C)c45)C3)CC2C1 (stereo not shown) [Compound 294b] | 0.077 | 
Cc1cncc2c1c(C[C@@H]1CCN(CC3CCOCC3)C1)cn2-c1ccc(F)cc1C(=O)N1CCC[C@@H]1CO [Compound 361] | 0.149 | 
Cc1cncc2c1c(C[C@H]1CN[C@H](C)C1)cn2-c1ccc(F)cc1C(=O)N(C)C(C)C [Compound 503] | 10.5 | 
Cc1cncc2c1c(C[C@H]1CN[C@@H](C)C1)cn2-c1ccc(F)cc1C(=O)N(C)C(C)C [Compound 505] | 3.11 | 
Cc1cncc2c1c(CC1CCNC1C)cn2-c1ccc(F)cc1C(=O)N(C)C(C)C (stereo not shown) [Compound 507] | 6.6 | 
Cc1cncc2c1c(CC1CCNC1C)cn2-c1ccc(F)cc1C(=O)N(C)C(C)C (stereo not shown) [Compound 508] | 3.68 | 
Cc1cncc2c1c(CC1CCNC1C)cn2-c1ccc(F)cc1C(=O)N(C)C(C)C (stereo not shown) [Compound 509] | 4.53 | 
Cc1cncc2c1c(CC1CCNC1C)cn2-c1ccc(F)cc1C(=O)N(C)C(C)C (stereo not shown) [Compound 510] | 2.95 | 
Cc1cncc2c1c(C[C@@H]1CN[C@@H](C)C1)cn2-c1ccc(F)cc1C(=O)N(C)C(C)C [Compound 522] | 10.6 | 
COC(=O)c1cc(F)ccc1-n1cc(C[C@@H]2CCN(CC3CCN(C(C)=O)CC3)C2)c2c(C)cncc21 [Compound 528] | 0.514 | 
COC(=O)c1cc(F)ccc1-n1cc(C[C@@H]2CCN(CC3CCNC(=O)CC3)C2)c2c(C)cncc21 (stereo partly shown) [Compound 533] | 0.808 | 
COC(=O)c1cc(F)ccc1-n1cc(C[C@@H]2CCN(CC3CCOCC3)C2)c2c(C)cncc21 [Compound 534] | 0.556 | 
